Patent publication US20060067913A1, “HCV therapy” (priority 2003, published 2006)
Where a SMILES comes first, the peptide text is derived from it.

Tests used:
[1] = Procedure: In this Example, Human Ezrin Peptide therapy comprised oral administration of a 2 mg/2 ml aqueous solution of HEP1 to HCV patients who were also infected with HIV. The patients were treated twice a day for 10 days followed by once a day for 20 days in the absence of any other anti-HIV or anti-HCV therapy. Blood samples from patients were analysed before treatment and 30 days after the end of the 30 day treatment period.
[2] = children; cited from earlier work

Q: Which CD4/CD8 index ([1]; HIV+HCV infected patients) does the source give for `CC(C)[C@H](NC(=O)[C@@H](NC(=O)[C@H](CCC(=O)O)NC(=O)[C@H](CCCNC(=N)N)NC(=O)[C@H](CCCNC(=N)N)NC(=O)[C@H](CCCCN)NC(=O)[C@H](CCCCN)NC(=O)[C@H](CCC(=O)O)NC(=O)[C@@H](N)[C@@H](C)O)[C@@H](C)O)C(=O)N[C@@H](CCC(=O)O)C(=O)N[C@@H](CCCNC(=N)N)C(=O)N[C@@H](CCC(=O)O)C(=O)N[C@@H](CCCCN)C(=O)N[C@@H](CCC(=O)O)C(=O)O` [HEP1] (H-TEKKRRETVEREKE-OH) here?
A: improved

Q: And the “average increase of CD4 cells” value ([1]; HIV+HCV infected patients)?
A: 70 cells per microlitre

Q: What about the “patients with increased CD4 cells” value ([1]; HIV+HCV infected patients) of the same compound?
A: 18 of 19

Q: And the “side effects or adverse events” value ([1]; during treatment with HEP1)?
A: No side effects or adverse events were observed

Q: What about the “side-effects or adverse reactions” value [2] of the same compound?
A: No side-effects or adverse reactions
